Among the data in ChEMBL document CHEMBL2029324, “A small molecule regulates hairpin structures in d(CGG) trinucleotide repeats” (Bioorg Med Chem Lett, 2012) are Activity values, retold here.

Active and inactive are the calls of the source. No cut-off for these calls is given here.

What all share (type): nucleic-acid assay
Assay [1] has as its system Nucleic Acid. In words: Binding affinity to d(CGG)10 DNA assessed as decrease in signal intensity by CD-UV analysis.
The test system of assay [2] is Nucleic Acid. In words: Binding affinity to d(CGG)10 DNA assessed as hairpin loop formation at 1 to 30 uM by PAGE analysis.
The test system of assay [3] is Nucleic Acid. The experiment in a line: Binding affinity to d(CGG)10 DNA assessed as increase in strong positive peak by CD-UV analysis.
In assay [4] the test system is Nucleic Acid. The experiment in a line: Binding affinity to d(CGG)10 DNA assessed as formation of stable compound-DNA hairpin loop of the template at increasing compound concentration.
The test system of assay [5] is Nucleic Acid. In words: Binding affinity to d(CGG)10 DNA assessed as increase in positive induced CD at 5 to 20 uM by CD-UV analysis.
The test system of assay [6] is Nucleic Acid. In words: Binding affinity to d(CCG)10 DNA assessed as inhibition of Taq polymerase-mediated DNA replication at 20 uM.
Assay [7] deals with Nucleic Acid. In words: Binding affinity to d(CGG)10 DNA assessed as thermal denaturation at 100 degC and 20 uM.
In assay [8] the test system is Nucleic Acid. The experiment in a line: Binding affinity to d(CGG)10 DNA assessed as inhibition of Taq polymerase at first (CGG)10 repeat region from 3'-end of the template at increasing concentration.
Assay [9] relates to Nucleic Acid. In words: Binding affinity to d(CCG)10 DNA assessed as hairpin loop formation at 30 uM by PAGE analysis.
The subject of assay [10] is Nucleic Acid. The experiment in a line: Binding affinity to d(CCG)10 DNA assessed as increase in melting temperature at 5 to 20 uM.
Assay [11] concerns Nucleic Acid. In words: Binding affinity to d(CGG)10 DNA assessed as formation of compound-DNA hairpin loop of the template at low compound concentration.
For assay [12], the system named is Nucleic Acid. In words: Binding affinity to d(CGG)10 DNA assessed as inhibition of Taq polymerase at first and fifth part of the (CGG)10 repeat region from 3'-end of the template at 5 uM.
Assay [13] has as its system Nucleic Acid. The experiment in a line: Binding affinity to d(CGG)10 DNA assessed as inhibition of Taq polymerase-mediated DNA replication.

For `Cc1ccc2ccc(NC(=O)OCCCNCCCOC(=O)Nc3ccc4ccc(C)nc4n3)nc2n1`, the Activity result in the assay with Nucleic Acid [1], with Nucleic Acid [3] and in the assay on Nucleic Acid [13] was “Dose-dependent effect” in each case. Also, the result with Nucleic Acid [2], in the assay with Nucleic Acid [4], in the assay on Nucleic Acid [5], in the assay with Nucleic Acid [8], in the assay with Nucleic Acid [11] and with Nucleic Acid [12] was Active. Also, the outcome in the assay on Nucleic Acid [6], with Nucleic Acid [7], in the assay with Nucleic Acid [9] and in the assay on Nucleic Acid [10] was inactive.
